Results reported in patent publication US20100119595A1, “Monounsaturated fatty acids and perhydrocyclopentanophenanthrene nucleus combination molecules, and their precursors, and the use of all of these as weight-loss agents” (priority 2001, published 2010).

What was measured:
[1] = Dog weight-loss study, estrone eicosenoate vs oleoyl-estrone (Example 2); format: in vivo; details: oral 21 days, 5, 3.33 or 2.5 micromoles/kg vs OE 10 micromoles/kg
Description: Dogs are selected and initial measurements taken. The initial measurements include weight and electrical impedance for each dog as measured by a standard impedance measuring device with electrodes placed between the front and rear paws. The dogs are placed individually in appropriate cages and allowed an ad libitum diet of standard dog chow and water for a 10-day period. Daily measurements include the following: • 1. Weight • 2. Weight of food consumed • 3. Water consumed, both volume and weight Every other day, the dogs' electrical impedance is measured as an indicator of fat tissue content and loss. The dogs remain confined with out of cage activity or exercise for the duration of the experiment. This initial 10-day period establishes a pattern and average of weight gain, impedance change, and food and water consumption for each dog. […] This assures the dogs will readily accept the bread ball as a drug delivery device. […] An appropriate volume of either OE or EE is placed into the center of a thick piece of dense sweet bread (non-porous), carefully rolled into a small ball so none of the to compound leaks out, and sprinkled on the outer surface with sugar or syrup as determined above. […] Electrical impedance of each dog is measured every other day.

[2] = Rabbit study at mole/kg dose equivalent to that used for oleoyl-estrone in rats; format: in vivo, rabbits
Description: The eicosenoic acid-estrogen monoesters mimic the function of the naturally occurring fatty acid monoester, estrone monooleate, as a signal that informs the brain of the size of fat tissue mass. When administered to rabbits, they produce weight reduction of about 20%, by a) decreasing food intake and b) by a new and unexpected mechanism. Eicosenoic acid-estrogen monoesters are useful for the treatment of obesity and/or overweight in mammals, with the advantages of high efficacy and low toxicity.

[3] = tested on: MCF-7 human breast cancer cell line; experiment: MCF-7 human breast cancer cell line test; format: cell-based; details: MCF-7 human breast cancer cells
Description: The practical use of any compound given to humans for the treatment of obesity require, of course, that the compound not only be effective, but able to pass the FDA requirements and be approved as a drug suitable for humans. […] One test used to determine reactivity with human breast cancer cells is the “MCF-7 human breast cancer cell line test”. The lower the concentration of drug required to produce agonist activity, the more potential there is for problems with cancer causing &/or promotion in humans A comfortable level in the pharmaceutical industry would be a reactivity in the micromolar range. In the case of oleyl estrone, agonist activity begins at […]; with estrone eicosenoate, agonist activity begins at a ten times greater concentration of 1.0 nanomolar. This low concentration of agonist activity mitigates the possibility that these compounds would gain FDA approval for either drug.

CCCCCCCC/C=C\CCCCCCCCCC(=O)Oc1ccc2c(c1)CC[C@@H]1[C@@H]2CC[C@]2(C)C(=O)CC[C@@H]12 [EE, estrone eicosenoate]
weight loss compared with dogs receiving oleoyl-estrone [1]: greater weight loss
greater reduction in appetite in rabbits than oleoyl-estrone did in rats [2]: 50%
greater weight loss in rabbits than oleoyl-estrone did in rats [2]: 60%
concentration at which agonist activity begins [3]: 1.0 nM
